Data on 5 compounds can be found in US4087520A, “Lowering blood pressure with new L-3-(3,4-dihydroxyphenyl)-2-methyl-alanine peptides” (Boehringer Mannheim GmbH, priority 1975, dated 1978).

The assay concerns blood pressure of rats with arterial high pressure. The experiment in a line: Blood pressure depression in awake hypertensive rats (11-deoxycorticosteroneacetate plus common salt), direct arterial catheter measurement. The format is in vivo. The following applies: hypertensive rats (10% sodium chloride in feed + 11-deoxycorticosteroneacetate), 0.6 millimole/kg perorally in 1% methyl cellulose, 4 hours after oral application, median of at least 6 measurements. Here is the method:
The test animals were rats into which arterial catheters had been implanted in a sterile operation via the arteria femoralis into the aorta. It was possible to measure the animals' blood pressure in the awake state directly in the blood with a transducer (Statham Transducer Type TP 23 D 6) via a carrier frequency measuring bridge. The animals were treated by administration of 10% common salt (sodium chloride) in their feed and, starting on the sixth week of their life, two injections per week of 5 mg at a time of 11-deoxycorticosteroneacetate per animal and thus developed an arterial high pressure in the median with values of […]. The test compounds were administered to the animals as follows: After the blood pressure control values had been determined, the animals received the test compound perorally suspended in 10 ml of 1% methyl cellusose solution in a dosage of 0.6 millimole/kg and measurements were taken 4 hours after oral application of the substance.
The values set forth in the Table represent in each case the median of at least 6 individual measurements of blood pressure depression (in mm Hg) per applied substance.
For the compound `C[C@@](Cc1ccc(O)c(O)c1)(NC(=O)CN)C(=O)O` [Glycyl-L-3-(3,4-dihydroxyphenyl)-2-methyl-alanine], the “Blood Pressure Reduction” value worked out at 37 ± 9.1 mm Hg.

Turning to `C[C@H](N)C(=O)N[C@@](C)(Cc1ccc(O)c(O)c1)C(=O)O` [L-Alanyl-L-3-(3,4-dihydroxyphenyl)-2-methyl-alanine], the “Blood Pressure Reduction” value was 51 ± 6.0 mm Hg.

For the compound `C[C@H](N)C(=O)N[C@@H](C)C(=O)N[C@@](C)(Cc1ccc(O)c(O)c1)C(=O)O` [L-Alanyl-L-alanyl-L-3-(3,4-dihydroxyphenyl)-2-methylalanine], the “Blood Pressure Reduction” value stood at 58 ± 5.8 mm Hg.

Take `C[C@@](Cc1ccc(O)c(O)c1)(NC(=O)[C@@H](N)CO)C(=O)O` [L-Seryl-L-3-(3,4-dihydroxyphenyl)-2-methyl-alanine]: the “Blood Pressure Reduction” value was 52 ± 7.5 mm Hg.

Consider `C[C@](N)(Cc1ccc(O)c(O)c1)C(=O)O` [α-Methyl-Dopa, L-3-(3,4-dihydroxyphenyl)-2-methyl-alanine], for which the “Blood Pressure Reduction” value is 33 ± 4.9 mm Hg.
